The text below walks through data of patent publication US8202868B2, “4-piperazinyl-pyrimidine compounds suitable for treating disorders that respond to modulation of the dopamine D3 receptor” (Abbott GmbH & Co. KG, priority 2004, dated 2012).

The target of experiment [1] is T1, human dopamine D3 receptors (Homo sapiens, UniProt P35462).
T1 construct: expressed in transfected cells; host or cells: HEK-293
Nature of the experiment: Dopamine D3 receptor binding, [125I]-iodosulpride displacement. To be noted: for Ki: membranes of HEK-293 cells, 0.1 nM [125I]-iodosulpride, 25° C., 60 minutes; for Ki(D2)/Ki(D3): selectivity ratio of receptor binding constants. As for the experimental part: (§1) The substance to be tested was either dissolved in methanol/Chremophor® (BASF-AG) or in dimethyl sulfoxide and then diluted with water to the desired concentration.
(§2) Each assay mixture was run in triplicate.
The incubation buffer contained 50 mM tris, 120 mM NaCl, 5 mM KCl, 2 mM CaCl2, 2 mM MgCl2 and 0.1% bovine serum albumin, 10 μM quinolone and 0.1% ascorbic acid (prepared fresh daily). The buffer was adjusted to pH 7.4 with HCl.
(§3) After having been incubated at 25° C. for 60 minutes, the assay mixtures were filtered through a Whatman GF/B glass fiber filter under vacuum using a cell collecting device. The filters were transferred to scintillation viols using a filter transfer system. After 4 ml of Ultima Gold® (Packard) have been added, the samples were shaken for one hour and the radioactivity was then counted in a Beta-Counter (Packard, Tricarb 2000 or 2200CA). The cpm values were converted into dpm using a standard quench series and the program belonging to the instrument.
(§4) The inhibition curves were analyzed by means of iterative nonlinear regression analysis using the Statistical Analysis System (SAS) which is similar to the “LIGAND” program described by Munson and Rodbard.

Experiment [2] concerns the target T2, human dopamine D2L receptors (long isoform) (Homo sapiens, UniProt P14416).
T2 construct: expressed in transfected cells; host or cells: HEK-293
Description: Dopamine D2L receptor binding, [125I] iodospiperone displacement. As for the experimental part: as §1, §2
The incubation buffer contained 50 mM tris, 120 mM NaCl, 5 mM KCl, 2 mM CaCl2, 2 mM MgCl2 and 0.1% bovine serum albumin. The buffer was adjusted to pH 7.4 with HCl.
as §3, §4

[3] abbreviates: membranes of HEK-293 cells, 0.01 nM [125I] iodospiperone, 25° C., 60 minutes, read-out: Ki(D2).

Counter-ions that a name gives are not always drawn. Like-named read-outs stand apart in the source and are kept apart here.

T1 sequence (P35462 whole entry): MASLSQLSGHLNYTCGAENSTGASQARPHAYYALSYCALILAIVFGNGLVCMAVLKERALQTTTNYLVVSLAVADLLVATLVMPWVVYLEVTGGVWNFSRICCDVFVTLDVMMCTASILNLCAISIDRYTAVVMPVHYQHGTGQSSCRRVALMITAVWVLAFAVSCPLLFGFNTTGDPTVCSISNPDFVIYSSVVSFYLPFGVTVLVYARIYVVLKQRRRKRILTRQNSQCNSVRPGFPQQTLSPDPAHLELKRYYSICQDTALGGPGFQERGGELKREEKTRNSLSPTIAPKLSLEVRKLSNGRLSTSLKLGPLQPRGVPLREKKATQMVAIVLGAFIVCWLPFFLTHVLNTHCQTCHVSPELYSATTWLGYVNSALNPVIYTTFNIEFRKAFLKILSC
T2 sequence (P14416 whole entry, canonical isoform): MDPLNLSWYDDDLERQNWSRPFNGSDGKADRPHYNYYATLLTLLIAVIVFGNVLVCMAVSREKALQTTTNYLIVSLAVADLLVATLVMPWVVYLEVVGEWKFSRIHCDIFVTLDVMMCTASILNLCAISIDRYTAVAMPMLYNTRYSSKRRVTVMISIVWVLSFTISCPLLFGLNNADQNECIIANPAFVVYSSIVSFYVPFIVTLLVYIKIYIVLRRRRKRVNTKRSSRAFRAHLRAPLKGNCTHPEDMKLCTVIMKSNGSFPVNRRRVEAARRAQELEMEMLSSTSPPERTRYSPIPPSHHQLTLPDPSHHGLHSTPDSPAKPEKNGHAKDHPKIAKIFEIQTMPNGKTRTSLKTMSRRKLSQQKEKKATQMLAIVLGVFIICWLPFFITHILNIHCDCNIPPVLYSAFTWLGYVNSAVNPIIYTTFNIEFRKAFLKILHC

As for `Cc1nnc(SCCCN2CCN(c3cc(C4CC4)nc(C(C)(C)C)n3)CC2)n1C.Cl` [Example 45, 2-tert-Butyl-4-{4-[3-(4-methyl-5-methyl-4H-[1,2,4]triazol-3-ylsulfanyl)-propyl]-piperazin-1-yl}-6-cyclopropyl-pyrimidine hydrochloride], in experiment [1], the affinity, expressed as Ki, was 1.2 nM and the “Ki(D2)/Ki(D3)” value was determined as 234. Further, the Ki in experiment [2] (setting [3]) amounted to 272 nM.
As for `Cl.Cn1cccc1-c1nnc(SCCCN2CCN(c3cc(C4CCC4)nc(C(C)(C)C)n3)CC2)n1C` [Example 66, 2-tert-Butyl-4-cyclobutyl-6-(4-{3-[4-methyl-5-(1-methyl-1H-pyrrol-2-yl)-4H-[1,2,4]triazol-3-ylsulfanyl]-propyl}-piperazin-1-yl)-pyrimidine hydrochloride], in experiment [1], the inhibitory constant (Ki) stood at 0.96 nM and the “Ki(D2)/Ki(D3)” value was found to be 106. In addition, in experiment [2] (setting [3]), the inhibition constant Ki came to 102 nM.
For the molecule `Cn1c(SCCCN2CCN(c3cc(C4CC4)nc(C(C)(C)C)n3)CC2)nnc1-c1cnccn1` [Example 56, 2-tert-butyl-4-{4-[3-(5-pyrazin-4-methyl-4H-[1,2,4]triazol-3-ylsulfanyl)-propyl]-piperazin-1-yl}6-cyclopropyl-pyrimidine hydrochloride], in experiment [1], the inhibition constant (Ki) is 0.47 nM and the “Ki(D2)/Ki(D3)” value is on record as 109. For the same molecule, the Ki in experiment [2] (setting [3]) came to 51.2 nM.
Regarding `Cn1c(SCCCN2CCN(c3cc(C4CCC4)nc(C(C)(C)C)n3)CC2)nnc1C1CC1.O=C(O)/C=C/C(=O)O` [Example 44, 2-tert-Butyl-4-{4-[3-(4-methyl-5-cyclopropyl-4H-[1,2,4]triazol-3-ylsulfanyl)-propyl]-piperazin-1-yl}-6-cyclobutyl-pyrimidine fumarate], in experiment [1], the affinity corresponds to a Ki of 0.6 nM and the “Ki(D2)/Ki(D3)” value is recorded as 250. For the same molecule, the inhibition constant (Ki) in experiment [2] (setting [3]) was 142 nM.
Turning to `CC(C)(C)c1nc(C2CCC2)cc(N2CCN(CCCSc3ncccn3)CC2)n1.Cl` [Example 4, 2-tert-Butyl-4-cyclobutyl-6-{4-[3-(pyrimidin-2-ylsulfanyl)-propyl]-piperazin-1-yl}-pyrimidine hydrochloride], in experiment [1], the Ki was found to be 0.9 nM and the “Ki(D2)/Ki(D3)” value amounted to 127. Also, in experiment [2] (setting [3]), the Ki stood at 113 nM.
For the molecule “2-tert-Butyl-4-cyclobutyl-6-{4-[3-(1-methyl-1H-tetrazol-5-ylsulfanyl)-propyl]-piperazin-1-yl}-pyrimidine [Example 9]”, in experiment [1], the Ki was 4.1 nM and the “Ki(D2)/Ki(D3)” value was 106. In experiment [2] (setting [3]), the Ki came out at 432 nM.
`Cn1cnnc1SCCCN1CCN(c2cc(C3CCC3)nc(C(C)(C)C)n2)CC1` [Example 41, 2-tert-Butyl-4-{4-[3-(4-methyl-4H-[1,2,4]triazol-3-ylsulfanyl)-propyl]-piperazin-1-yl}-6-cyclobutylpyrimidine]: in experiment [1], the Ki was 1.3 nM and the “Ki(D2)/Ki(D3)” value amounted to 314. In addition, the Ki in experiment [2] (setting [3]) is 405 nM.
Consider `CC(C)(C)c1nc(C2CCC2)cc(N2CCN(CCCCNC(=O)c3cccnc3)CC2)n1` [Example 12, N-{4-[4-(2-tert-Butyl-6-cyclobutyl-pyrimidin-4-yl)-piperazin-1-yl]-butyl}-nicotinamide], for which the Ki was determined as 1 nM in experiment [1] and 115 nM in experiment [2] (setting [3]). In addition, the “Ki(D2)/Ki(D3)” value in experiment [1] stood at 121.
On to `CC(C)(C)c1nc(C2CCC2)cc(N2CCN(CCCOc3ncccn3)CC2)n1.Cl` [Example 27, 2-tert-Butyl-4-cyclobutyl-6-{4-[3-(pyrimidin-2-yloxy)-propyl]-piperazin-1-yl}-pyrimidine hydrochloride], for which the Ki in experiment [1] was determined as 2.1 nM; in experiment [2] (setting [3]), 222 nM. The “Ki(D2)/Ki(D3)” value in experiment [1] was found to be 107.
As to `Cc1nnc(SCCCN2CCN(c3cc(C4(C)CC4)nc(C(C)(C)C)n3)CC2)n1C` [Example 54, 2-tert-butyl-4-{4-[3-(4-methyl-5-methyl-4H-[1,2,4]triazol-3-ylsulfanyl)-propyl]piperazin-1-yl}-6-(1-methyl)cyclopropyl-pyrimidine], in experiment [1], the Ki is 0.64 nM and the “Ki(D2)/Ki(D3)” value is reported as 124. Further, in experiment [2] (setting [3]), the Ki turned out to be 80 nM.
Take `Cn1c(OCCCN2CCN(c3cc(C4(C)CC4)nc(C(C)(C)C)n3)CC2)nnc1-c1ccccc1` [Example 63, 2-tert-Butyl-4-(1-methyl-cyclopropyl)-6-{4-[3-(4-methyl-5-phenyl-4H-[1,2,4]triazol-3-yloxy)-propyl]-piperazin-1-yl}-pyrimidine]: the inhibitory constant (Ki) stood at 2.6 nM in experiment [1] and 104 nM in experiment [2] (setting [3]). For the same molecule, the “Ki(D2)/Ki(D3)” value in experiment [1] is 40.
`CC(C)(C)c1nc(C2CCC2)cc(N2CCN(CCCOc3nccc(O)n3)CC2)n1` [Example 26, 2-{3-[4-(2-tert-Butyl-6-cyclobutyl-pyrimidin-4-yl)-piperazin-1-yl]-propoxy}-pyrimidin-4-ol]: in experiment [1], the affinity, expressed as Ki, was 4.8 nM and the “Ki(D2)/Ki(D3)” value came to 70. Further, in experiment [2] (setting [3]), the Ki amounted to 337 nM.
Turning to `CC(C)(C)c1nc(C2CCC2)cc(N2CCN(CCCCc3nccc(O)n3)CC2)n1` [Example 34, 2-{4-[4-(2-tert-Butyl-6-cyclobutyl-pyrimidin-4-yl)-piperazin-1-yl]-butyl}-pyrimidin-4-ol], the inhibition constant Ki was determined as 1.1 nM in experiment [1] and 77 nM in experiment [2] (setting [3]). Also, the “Ki(D2)/Ki(D3)” value in experiment [1] was 71.
In the same order, the values of `Cc1nnc(SCCCN2CCN(c3cc(C4CCC4)nc(C(C)(C)C)n3)CC2)s1.Cl` [Example 2, 2-tert-Butyl-4-cyclobutyl-6-{4-[3-(5-methyl-[1,3,4]thiadiazol-2-ylsulfanyl)-propyl]-piperazin-1-yl}-pyrimidine hydrochloride] are 1.4 nM, 135 nM and 96.
For the molecule `C[C@@H](COc1ccnc(O)n1)CN1CCN(c2cc(C3CCC3)nc(C(C)(C)C)n2)CC1` [Example 31, (R)-4-{3-[4-(2-tert-Butyl-6-cyclobutyl-pyrimidin-4-yl)-piperazin-1-yl]-2-methyl-propoxy}-pyrimidin-2-ol], in experiment [1], affinity was put at a Ki of 2 nM and the “Ki(D2)/Ki(D3)” value was determined as 72. The Ki in experiment [2] (setting [3]) came to 143 nM.
Regarding `Cc1nnc(SCCCN2CCN(c3cc(C4CCC4)nc(C(C)(C)C)n3)CC2)n1C.O=C(O)/C=C/C(=O)O` [Example 43, 2-tert-Butyl-4-{4-[3-(4-methyl-5-methyl-4H-[1,2,4]triazol-3-ylsulfanyl)-propyl]-piperazin-1-yl}-6-cyclobutyl-pyrimidine fumarate], in experiment [1], the Ki amounted to 1.5 nM and the “Ki(D2)/Ki(D3)” value worked out at 210. Moreover, in experiment [2] (setting [3]), the Ki is 305 nM.
Consider `CC(C)(C)c1nc(C2CCC2)cc(N2CCN(CCCCNC(=O)c3ccncc3)CC2)n1.Cl` [Example 11, N-{4-[4-(2-tert-Butyl-6-cyclobutyl-pyrimidin-4-yl)-piperazin-1-yl]-butyl}-isonicotinamide hydrochloride], for which, in experiment [1], affinity was put at a Ki of 0.9 nM and the “Ki(D2)/Ki(D3)” value was 150. Also, in experiment [2] (setting [3]), the Ki was 137 nM.
Regarding `CC(C)(C)c1nc(C2CCC2)cc(N2CCN(CCCSc3nncs3)CC2)n1` [Example 1, 2-tert-Butyl-4-cyclobutyl-6-{4-[3-([1,3,4]thiadiazol-2-ylsulfanyl)-pronyl]-piperazin-1-yl}-pyrimidine], in experiment [1], the Ki is 0.9 nM and the “Ki(D2)/Ki(D3)” value is recorded as 54. In experiment [2], this molecule registered a Ki of 49 nM.
For `Cn1c(OCCCN2CCN(c3cc(C4CCC4)nc(C(C)(C)C)n3)CC2)nnc1-c1ccccc1` [Example 64, 2-tert-Butyl-4-cyclobutyl-6-{4-[3-(4-methyl-5-phenyl-4H-[1,2,4]triazol-3-yloxy)-propyl]-piperazin-1-yl}-pyrimidine], in experiment [1], the Ki turned out to be 1.6 nM and the “Ki(D2)/Ki(D3)” value amounted to 92. Moreover, in experiment [2] (setting [3]), the Ki came out at 147 nM.
Turning to `CC(C)(C)c1nc(C2CC2)cc(N2CCN(CCCOc3nccc(O)n3)CC2)n1` [Example 37, 2-{3-[4-(2-tert-Butyl-6-cyclopropyl-pyrimidin-4-yl)-piperazin-1-yl]-propoxy}-pyrimidin-4-ol], in experiment [1], the affinity corresponds to a Ki of 7.1 nM and the “Ki(D2)/Ki(D3)” value is 51. In experiment [2] (setting [3]), the Ki came out at 359 nM.
